pEC50: −log10 of the molar value.
Key:
Format in all cases: cell-based
Mrgpra1 [1] = target: T1, Mrgpra1 (Mus musculus, UniProt Q91WW5); test: calcium imaging, […] DCA in Mrgpra1-HEK293T cells
T1 sequence (Q91WW5 1-304): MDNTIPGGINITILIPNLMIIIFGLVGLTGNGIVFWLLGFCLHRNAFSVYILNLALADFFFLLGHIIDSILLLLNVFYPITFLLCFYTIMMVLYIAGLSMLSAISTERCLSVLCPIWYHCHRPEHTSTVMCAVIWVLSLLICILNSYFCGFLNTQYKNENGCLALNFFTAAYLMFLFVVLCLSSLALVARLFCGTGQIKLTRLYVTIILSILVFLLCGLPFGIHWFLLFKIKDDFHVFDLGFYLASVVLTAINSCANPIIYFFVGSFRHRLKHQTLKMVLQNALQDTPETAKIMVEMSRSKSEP

Mrgpra1 [2] = target: T1, Mrgpra1; test: calcium imaging
Mrgprb2 = target: T2, Mrgprb2 (Mus musculus, UniProt Q3KNA1); test: calcium imaging
T2 sequence (Q3KNA1 1-338): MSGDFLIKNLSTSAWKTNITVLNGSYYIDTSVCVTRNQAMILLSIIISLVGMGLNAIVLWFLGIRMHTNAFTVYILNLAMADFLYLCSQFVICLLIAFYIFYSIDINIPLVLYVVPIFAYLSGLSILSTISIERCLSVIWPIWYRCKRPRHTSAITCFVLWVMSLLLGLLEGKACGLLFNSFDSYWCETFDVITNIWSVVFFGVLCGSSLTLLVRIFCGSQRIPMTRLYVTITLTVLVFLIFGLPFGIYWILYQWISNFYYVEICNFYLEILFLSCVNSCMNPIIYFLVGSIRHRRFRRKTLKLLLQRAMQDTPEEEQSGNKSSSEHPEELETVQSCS

## C[C@H](CCC(=O)O)[C@H]1CC[C@H]2[C@@H]3CC[C@@H]4C[C@H](O)CC[C@]4(C)[C@H]3C[C@H](O)[C@]12C [DCA, deoxycholic acid]
Mrgpra1 [1]
  calcium imaging, 100 μM DCA in Mrgpra1-HEK293T cells (weaker than LCA): also elevated the fluorescence intensity in Mrgpra1-HEK293T, but to a lesser extent (Fig. 1B, 1C)

## C[C@H](CCC(=O)O)[C@H]1CC[C@H]2[C@@H]3CC[C@@H]4C[C@H](O)CC[C@]4(C)[C@H]3CC[C@]12C [LCA, 3α-hydroxy-5β-cholan-24-oic acid]
Mrgpra1 [2]
  pEC50: 3.54
Mrgprb2
  pEC50: 3.74

Reference: article PMC8724838 (Biomolecules & Therapeutics, 2021)
